Data as given in US12678438B2, “Treatment of cancer with CDK inhibitors” (THE TRUSTEES OF THE UNIVERSITY OF PENNSYLVANIA, priority 2019, dated 2026).

Assays:
[1] = test system: AR-negative cells; assay: Cell viability assay (Cell-Titer GLO), GI50; assay type: cell-based; conditions: Homo sapiens; three AR-negative cells, 96 h incubation
Procedure: (§1) Cell viability assays were performed by seeding the cells in 96-well plates at 2500-10000 cells/well (optimum density for growth) in a total volume of 100 μL complete media. Serially diluted compounds/drugs in 100 μL media were added to the cells 24 h post seeding. Following 96 h incubation, cell viability was assessed by Cell-Titer GLO (Promega, PR G7571). The measurements were normalized and regression curves were fitted to calculate GI50 using GraphPad Prism software.

[2] = test system: AR-dependent PCa lines; assay: Cell viability assay (Cell-Titer GLO), GI50; assay type: cell-based; conditions: Homo sapiens; five AR-dependent PCa lines, 96 h incubation
Procedure: as §1

[3] = test system: p-MED1 (p-T1457 MED1); assay: Immunoblot of p-MED1 in AR negative RWPE and DU145 cells; assay type: cell-based, human; conditions: RWPE and DU145, highest tested concentration
Procedure: Cell lysates were prepared with RIPA buffer (Boston Bioproducts, BP-115DG)-10 mM Tris-HCl pH 7.5, 1 mM EDTA, 400 mM NaCl, 0.5% NP-40 and 1 mM DTT, supplemented with protease inhibitor cocktail (Pierce, A32965) and phosphatase inhibitor (Thermo, 1861280). For immunoblotting 200 μg total protein extract was boiled in sample buffer and 15-25 μg aliquots were separated by SDS-PAGE and transferred onto Polyvinylidene Difluoride membrane (GE Healthcare, IPVH00010). The membrane was incubated for one hour in blocking buffer [Tris-buffered saline, 0.1% Tween (TBS-T), 5% nonfat dry milk followed by overnight incubation on a rocker at 4° C. with the primary antibody. Following a wash with TBS-T, the blot was incubated with horseradish peroxidase-conjugated secondary antibody for 2 hrs on a rocker at room temperature. The blots were washed again and signals were visualized using enhanced chemiluminescence system as per manufacturer's protocol (GE Healthcare) or Kwik Quant Imager (Kindle Biosciences). […]

[4] = test system: AR-positive cells; assay: Long-term colony formation assay; assay type: cell-based, human; conditions: 50 nM THZ1, 12-14 days
Procedure: For the long-term colony formation assay, 10,000-50,000 cells/well in six-well plates (n=3) were seeded and treated with the required drugs/compounds or vehicle for 14 days. Media was refreshed every 4-5 days. Colonies were fixed and stained using 0.5% (w/v) crystal violet (Sigma, C0775) in 20% (v/v) methanol for 30 min, washed with distilled deionized water, and air-dried. To quantify staining, we washed the stained wells with 500 μL 10% acetic acid and using colorimetric assays determined the absorbance at 590 nm using a spectrophotometer (Synergy HT, BioTek Instruments, Vermont-USA).

[5] = test system: DU145 cells; assay: RNA-seq gene expression profiling; assay type: cell-based, human; conditions: DU145, 100 nM THZ1, 24 h
Procedure: (§2) RNA-seq libraries were constructed using the TruSeq sample Prep Kit V2 (Illumina) according to the manufacturer's instructions. Briefly, 1 μg of purified RNA was poly-A selected and fragmented with fragmentation enzyme. After first and second strand synthesis from a template of poly-A selected/fragmented RNA, other procedures from end-repair to PCR amplification were performed according to the instructions given in the protocol. Libraries were purified and validated for appropriate size on a 2100 Bioanalyzer DNA 1000 chip (Agilent Technologies, Inc.). The DNA library was quantitated using Qubit and normalized to 4 nM prior to pooling. Libraries were pooled in an equimolar fashion and diluted to a final concentration of 1.8 pM. Library pools were clustered and run on Nextseq500 platform (Illumina Inc.) with single-end reads of 75 bases.
(§3) Single-end sequencing reads were demultiplexed using Illumina bcl2fastq, quality checked using FASTQC (bioinformatics.babraham ac uk/projects/fastqc), and aligned to the GRCh37 (release 27) genome using the STAR v2.5.1 aligner, with default settings. The read statistics generated by STAR v2.5.1 was used to ensure that the aligned reads in all samples were over 90% of the total reads. The transcripts were assembled using cufflinks and the count and FPKM tables were computed using cuffnorm. Principal component analysis on the FPKM values was used to cluster the samples for further quality check.
(§4) Genes differentially expressed between any two sets of treatment were determined using DESeq2 (bioconductor.org/packages/release/bioc/html/DESeq.html), a statistical tool that employs shrinkage estimates to compute fold changes. In all our calculations, the raw RNA-seq read counts from biological duplicates, for each treatment condition, was used as the input for DESeq2.

[6] = test system: LNCaP cells; assay: RNA-seq gene expression profiling; assay type: cell-based, human; conditions: 100 nM THZ1, 24 h
Procedure: as §2, §3, §4

[7] = test system: VCaP cells; assay: RNA-seq gene expression profiling; assay type: cell-based, human; conditions: 100 nM THZ1, 24 h
Procedure: as §2, §3, §4

[8] = test system: p-MED1 (p-T1457 MED1); assay: Immunoblot of p-MED1 in AR-positive PCa cell lines (VCaP, LNCaP, 22RV1); assay type: cell-based, human
Procedure: Cell lysates were prepared with RIPA buffer (Boston Bioproducts, BP-115DG)-10 mM Tris-HCl pH 7.5, 1 mM EDTA, 400 mM NaCl, 0.5% NP-40 and 1 mM DTT, supplemented with protease inhibitor cocktail (Pierce, A32965) and phosphatase inhibitor (Thermo, 1861280). For immunoblotting 200 μg total protein extract was boiled in sample buffer and 15-25 μg aliquots were separated by SDS-PAGE and transferred onto Polyvinylidene Difluoride membrane (GE Healthcare, IPVH00010). The membrane was incubated for one hour in blocking buffer [Tris-buffered saline, 0.1% Tween (TBS-T), 5% nonfat dry milk followed by overnight incubation on a rocker at 4° C. with the primary antibody. Following a wash with TBS-T, the blot was incubated with horseradish peroxidase-conjugated secondary antibody for 2 hrs on a rocker at room temperature. The blots were washed again and signals were visualized using enhanced chemiluminescence system as per manufacturer's protocol (GE Healthcare) or Kwik Quant Imager (Kindle Biosciences). Primary antibodies used in the immunoblotting (IB), immunoprecipitation (IP), and Chromatin Immunoprecipitation sequencing (ChIP-seq) assays are as follows: AR_IP, IB, ChIP-Seq (Millipore, 06-680); pS81-AR_IB (Millipore, 07-1375-EMD); RNA Pol II_IP, IB (Abcam, ab5408); ERG_IB (Abcam, a92513); PSA_IB (Dako, A0562); H3-acetyl K27_IP, IB, ChIP Seq (Abcam, ab32104) cPARP_IB (Cell Signaling Technology, 9541s); Cleaved caspase-3_IB (Cell Signaling Technology, 9664t); CDK7_IP, IB (Cell Signaling Technology, 2916s); CDK9_IP, IB (Cell Signaling Technology, 2316s); CDK12_IB (Cell Signaling Technology, 11973S); CDK13_IB (Sigma Cat. #ABE1860); Cyclin H_IB (Cell Signaling Technology, 2927T); HA_IP, IB (Cell Signaling Technology, 2367s); ERK1/2_IP, IB (Cell Signaling Technology, 9107s); phospho-ERK1/2_IB (Cell Signaling Technology, 9101s); phospho-Threonine_IB (Cell Signaling Technology, 9381s); PP2A alpha_IB (Abcam, ab32104); phospho-MED1_IB (Abcam, ab60950); Anti-GST_IB (Cell Signaling Technology, 2624); Anti-AKT_IB (Cell Signaling Technology, 9272); Anti-phosphoAKT_IB(Cell Signaling Technology, 4060); Anti-phospho-AR (Ser-515) _IB (Abeam, ab128250); Anti-RNA Pol 'LIB (Abeam, ab5408); Anti-phospho-pol II (Ser-5)_IB (Abeam, ab ab5095); Anti-phospho-CDK7 (Tlu-170) _IB (Millipore, ABS567); MED1_IP, IB, ChIP Seq (Bethyl, abA300-793A), Ki67_IHC (Cell Signaling Technology, 9661), and GAPDH (14C10), IB (Cell Signaling Technology, 3683s) for loading control.

CN(C)C/C=C/C(=O)Nc1ccc(C(=O)Nc2cccc(Nc3ncc(Cl)c(-c4c[nH]c5ccccc45)n3)c2)cc1 [THZ1]
GI50 [1]: 400 to 600 nM
GI50 [2]: 50 to 170 nM
p-MED1 or pS5-PolII levels [3]: no such decrease in p-MED1 or pS5-PolII levels
long-term colony formation [4]: severely inhibited long-term colony formation
genes down (RNA-seq) [5]: 190
genes up (RNA-seq) [5]: 191
genes down (RNA-seq) [6]: 1695
genes up (RNA-seq) [6]: 2612
genes down (RNA-seq) [7]: 1203
genes up (RNA-seq) [7]: 1325
phosphorylation at Ser5 of RNA Pol II ([8]; VCaP and LNCaP, dose and time course): reduced phosphorylation at Ser5 of RNA Poll
p-MED1 levels, dose and time course ([8]; VCaP and LNCaP, standard growth conditions): dose- and time-dependent decrease in p-MED1 levels
p-MED1 levels ([8]; VCaP, LNCaP, 22RV1, standard culture conditions, 24 h (THZ1 and LDC also with DHT stimulation)): reduced p-MED1 levels
